Measured values published in US20050267303A1, “Cyclic indole and heteroindole derivatives and methods for making and using as pharmaceuticals” (Zentaris AG, priority 2001, published 2005).

Assays:
SK-OV-3 (HTB77) cells = assay: XTT cytotoxicity (proliferation) test, SK-OV-3; assay type: cell-based; conditions: Homo sapiens, concentration 3.16 μg/mL, 45 h incubation, read-out: percentage inhibition SK-OV-3
Text: (§1) The substances D-70260, D-70744, D-80815, D-80816 and D-80819 (Examples C2.3, D4, F2, F3 and F4) were investigated in a proliferation test (Scudiero, et al., Cancer Res., 48: 4827-33, 1987) using established tumor cell lines and their anti-proliferative activity was investigated. The test used determines the mitochondrial dehydrogenase activity and enables the cell vitality and, indirectly, the cell count to be determined. The cell lines used are the human cell lines HeLa/KB (CCL17), SK-OV-3 (HTB77), MCF-7 (HTB22) and the murine leukemia cell line L1210 (CCL219). These are very well characterized and established cell lines, which were obtained from ATCC and cultured.
(§2) XTT Test for Cellular Dehydrogenase Activity
(§3) The adherent, growing, tumor cell lines HeLa/KB, SK-OV-3, MCF-7, L1210 and RKO were cultured under standard conditions in an incubator with gas inlet at 37° C., 5% carbon dioxide and 95% relative humidity. On day 1 of the experiment, the cells were detached with trypsin/EDTA and palletized by centrifuging. Subsequently, the cell pellet is re-suspended in the respective culture medium in the appropriate cell count and transferred into a 96-well microtiter plate. The plates are then cultured overnight in the incubator with gas inlet. The test substances are used as a 10 mM stock solution in DMSO and diluted on the second day of the experiment with culture medium to the appropriate concentrations. The substances in the culture medium are then added to the cells and incubated for 45 hours in the incubator with gas inlet. The cells, which were not treated with test substances, were used as controls. For the XTT-Assay, 1 mg/mL of XTT (sodium 3′-[1-(phenylaminocarbonyl)-3,4-tetrazolium]-bis(4-methoxy-6-nitro) benzenesulfonic acid) in RPMI-1640 medium was dissolved without phenol red. Additionally, a 0.383 mg/mL PMS (N-methyl dibenzopyrazine methyl sulfate) solution in phosphate buffer cell solution (PBS) was prepared. On the fourth day of the experiment, 75 μL/well of XTT-PMS mixture was pipetted onto the cell plates, which had meanwhile been incubated for 45 hours with the test substances. For this purposes, the XTT solution is mixed with the PMS solution in a ratio of 50:1 (v: v) shortly before use. Subsequently the cell plates are incubated in the incubator with gas inlet for a further three hours and the optical density (OD490nm) is determined in a photometer.
(§4) The percentage inhibition relative to the control is calculated by means of the OD490nm, which has been determined, and the activity is plotted against the log of a concentration. The IC50 is calculated from the concentration-activity curve by means of a regression analysis using the Graphpad program.

[1] = test system: murine leukemia cell line L1210 (CCL219); assay: XTT cytotoxicity (proliferation) test, L1210; assay type: cell-based; conditions: Mus musculus, concentration 3.16 μg/mL, 45 h incubation, read-out: percentage inhibition L1210
Text: as §1, §2, §3, §4

HeLa/KB (CCL17) cells = assay: XTT cytotoxicity (proliferation) test, HeLa/KB; assay type: cell-based, human; conditions: for anti-proliferative effect (summary in words of Table 1): 3.16 μg/mL, over cell lines HeLa/KB, SK-OV-3, MCF-7, L1210; for percentage inhibition KB/HeLa: concentration 3.16 μg/mL, 45 h incubation
Text: as §1, §2, §3, §4

MCF-7 (HTB22) cells = assay: XTT cytotoxicity (proliferation) test, MCF-7; assay type: cell-based; conditions: Homo sapiens, MCF7, concentration 3.16 μg/mL, 45 h incubation, read-out: percentage inhibition MCF-7
Text: as §1, §2, §3, §4

[2] = test system: RKOp27 cells (RKO colon carcinoma line with inducible p27Kip1); assay: Cell cycle analysis in the RKOp27 model (XTT readout); assay type: cell-based, human
Text: The RKO is a human, colon carcinoma line, in which the cell cycle inhibitor p27^KiPI is induced to express by means of the Ecdyson expression system and leads to a cell cycle arrest specifically in GI (FIG. 2). A substance with non-specific activity inhibits the proliferation independently of whether the RKO cell in GI is arrested or not. On the other hand, cell cycle-specific substances, such as tubulin inhibitors, are cytotoxic only when the cells are not arrested and the cells pass through the cycle. […] Therefore, a defined, molecular, activity mechanism of D-80816 and its derivatives must be assumed. [drawing] [drawing]
Cell Cycle Analysis by Means of the RKOp27 Model
The assay is carried out in 96-well plates. The growth of the cells is arrested completely by the expression of p27^kiP1, which can be induced. […] By comparing the effectiveness of induced and not-induced cells, conclusions can be drawn concerning the mechanism of action (cell cycle specificity) of the therapeutic agents. Cells, which have […], were disseminated in an approximately 4 times higher cell count than uninduced cells, since there no longer is a division during the assay (2×10^4 cells/well induced, about 0.6×10^4 cells/well not induced). The controls are untreated cells (+/−induction). The induction is carried out with 3 μM of muristerone A. The cells are exposed on the first day (+/−muristerone A) and incubated for 24 hours at 37° C. The test substance is added on the second day (control DMSO) and the incubation is continued for a further 48 hours at 37° C., before the standard XTT assay is carried out (see above).

[3] = test system: MCF-7 cells in hollow fibers; assay: Hollow fiber model in vivo (nude mouse), MCF-7; set-up: species or system human; conditions: dose 4 × 100 mg/kg i.p., explanted day 5
Protocol: (§5) In order to determine the availability and effectiveness in the animal model (nude mouse), the cell lines HeLa/KB, MCF-7 and L1210 were cultured in hollow fibers, which are implanted i.p. or s.c. (Hollingshead et al., Life Sciences 57, 131-41, 1995). The test substance D-80816 is administered four times […]. in a dose of 100 mg/kg. At the end of the therapy on day 5, the fibers are explanted and the cell vitality of the tumor cells obtained is determined by means of the XTT assay. For D-80816, there is a maximum inhibition of 100% for all the cell lines and implantation cites and a general toxicity of LD50>1000 mg/kg (i.p.).
(§6) Determination of the Anti-Proliferative Activity in the Hollow Fiber Model in vivo
(§7) The tumor cells lines HeLa/KB, MCF-7 and L1210 are added to polyvinylidene fluoride hollow fibers (5×10^6 cells/mL) and transplanted into the physiological compartments of the nude mouse (intraperitoneally, i.p., or subcutaneously, s.c.). A total of six hollow fibers (3 i.p. and 3 s.c.) with the respective tumor cell lines is transplanted into each experimental animal. […] The proportion of metabolism-active, vital cells is determined for each hollow fiber by means of the XTT assay (see above). From this, the anti-tumor activity of the test substance is determined as the percent inhibition relative to the control.

[4] = General toxicity LD50 (i.p.); conditions: nude, mouse, in vivo, ip, read-out: LD 50 (general toxicity)
Protocol: as §5

[5] = test system: HeLa/KB cells in hollow fibers; assay: Hollow fiber model in vivo (nude mouse), HeLa/KB; set-up: species or system human
Protocol: as §5, §6
The tumor cells lines HeLa/KB, MCF-7 and L1210 are added to polyvinylidene fluoride hollow fibers (5×10^6 cells/mL) and transplanted into the physiological compartments of the nude mouse (intraperitoneally, i.p., or subcutaneously, s.c.). A total of six hollow fibers (3 i.p. and 3 s.c.) with the respective tumor cell lines is transplanted into each experimental animal. One group of six animals is treated with the test substance (i.p. once daily for a total of 4 days) (ok?). The animals, which have been treated only with the solvent tylose, acted as control. The hollow fibers are explanted one day after the last application of substance. The proportion of metabolism-active, vital cells is determined for each hollow fiber by means of the XTT assay (see above). From this, the anti-tumor activity of the test substance is determined as the percent inhibition relative to the control.

[6] = test system: L1210 cells in hollow fibers; assay: Hollow fiber model in vivo (nude mouse), L1210; set-up: species or system murine; conditions: dose 4 × 100 mg/kg i.p., explanted day 5
Protocol: as §5, §6, §7

| Structure (SMILES) | melting point | inhibition at 3.16 µg/mL (SK-OV-3 (HTB77) cells) | inhibition at 3.16 µg/mL [1] | anti-proliferative effect (summary in words of Table 1) (HeLa/KB (CCL17) cells) | percentage inhibition KB/HeLa (HeLa/KB (CCL17) cells) | inhibition at 3.16 µg/mL (MCF-7 (HTB22) cells) | further results |
| --- | --- | --- | --- | --- | --- | --- | --- |
| COc1ccc2c(c1)cc1c(-c3ccc(Cl)cc3)nn(-c3ccccc3)c(=O)n12 | 155 to 158 °C | – | – | – | – | – | – |
| COc1ccc2c(c1)cc1c(C)noc(=O)n12 [Example C2.1, 3-methyl-1,2,5-oxadiazino[4,5-α](5-methoxyindole)-6-one] | 217 to 220 °C | – | – | – | – | – | – |
| CCc1noc(=O)n2c1cc1cc(OC)ccc12 [Example C2.2, 3-ethyl-1,2,5-oxadiazino[4,5-α](5-methoxyindole)-6-one] | 208 to 212 °C | – | – | – | – | – | – |
| COc1ccc2c(c1)cc1c(-c3ccccc3)noc(=O)n12 [Example C2.3, 3-phenyl-1,2,5-oxadiazino[4,5α](5-methoxyindole)-6-one] | 198 to 200 °C | 68.9% | 91.3% | very potent anti-proliferative effect | 90.7% | 4.1% | – |
| COc1cccc(C2=C(c3cccc(OC)c3)c3cc4cc(OC)ccc4n3C2=O)c1 [Example F3, 6-methoxy-1,2-bis-(3-methoxyphenyl)-3a-aza-cyclopenta[a]indene-3-one] | – | 66.1% | 94.7% | very potent anti-proliferative effect | 91.7% | 18.2% | anti-proliferative effect in cells arrested in G1 ([2]; RKOp27 cells induced with 3 μM muristerone A (p27 expression, G1 arrest), 48 h, XTT): cannot be measured; anti-proliferative effect in cells not induced ([2]; RKOp27 cells not induced, 48 h, XTT): concentration-dependent anti-proliferative effect; cell cycle-specific activity ([2]; comparison of induced (G1-arrested) and not induced RKOp27 cells): cell cycle-specific activity; Proliferation Inhibition in hollow Fibers, MCF7 (i.p.) ([3]; fibers implanted i.p.): 100%; Proliferation Inhibition in hollow Fibers, MCF7 (s.c.) ([3]; fibers implanted s.c.): 100%; LD50 [4]: > 1000 mg/kg; LD50 at 5 days [4]: > 100 mg/kg; maximum inhibition in hollow fiber model ([5]; all the cell lines (HeLa/KB, MCF-7, L1210) and implantation sites (i.p., s.c.), 4 × 100 mg/kg): 100%; Proliferation Inhibition in hollow Fibers, KB (i.p.) ([5]; fibers implanted i.p., dose 4 × 100 mg/kg i.p., explanted day 5): 100%; Proliferation Inhibition in hollow Fibers, KB (s.c.) ([5]; fibers implanted s.c., dose 4 × 100 mg/kg i.p., explanted day 5): 100%; Proliferation Inhibition in hollow Fibers, L1210 (i.p.) ([6]; fibers implanted i.p.): 100%; Proliferation Inhibition in hollow Fibers, L1210 (s.c.) ([6]; fibers implanted s.c.): 100% |

Second part, led by results:

| melting point | Structure (SMILES) | inhibition at 3.16 µg/mL (SK-OV-3 (HTB77) cells) | inhibition at 3.16 µg/mL [1] | anti-proliferative effect (summary in words of Table 1) (HeLa/KB (CCL17) cells) | percentage inhibition KB/HeLa (HeLa/KB (CCL17) cells) | inhibition at 3.16 µg/mL (MCF-7 (HTB22) cells) | further results |
| --- | --- | --- | --- | --- | --- | --- | --- |
| 160 to 162 °C | COc1ccccc1-c1noc(=O)n2c1cc1ccccc12 [Example D1, 3-(2-methoxyphenyl)-1,2,5-oxadiazino[4,5α]indole-6-one] | – | – | – | – | – | – |
| 129 to 130 °C | COc1cccc(-c2noc(=O)n3c2cc2ccccc23)c1 [Example D2, 3-(3-methoxyphenyl)-1,2,5-oxadiazino[4,5α]indole-6-one] | – | – | – | – | – | – |
| 171 to 173 °C | COc1cccc(-c2noc(=O)n3c2cc2cc(OC)ccc23)c1 [Example D3, 3-(3-methoxyphenyl)-1,2,5-oxadiazino[4,5α](5-methoxyindole)-6-one] | – | – | – | – | – | – |
| 227 to 230 °C | COc1ccc2c(c1)cc1c(-c3ccc(Cl)cc3)noc(=O)n12 [Example D4, 3-(4-chlorophenyl)-1,2,5-oxadiazino[4,5α](5-methoxyindole)-6-one] | 55.2% | 77.1% | very potent anti-proliferative effect | 74.6% | 1.9% | – |
| 152 to 155 °C | COc1ccc2c(c1)cc1n2C(=O)C(c2ccccc2)=C1c1ccc(Cl)cc1 [Example F1, 1-(4-chlorophenyl)-6-methoxy-2-phenyl-3a-aza-cyclopenta[a]indene-3-one] | – | – | – | – | – | – |
| 111 to 113 °C | COc1cccc(C2=C(c3ccccc3)C(=O)n3c2cc2cc(OC)ccc23)c1 [Example F2, 6-methoxy-1-(3-methoxyphenyl)-2-phenyl-3a-aza-cyclopenta[a]indene-3-one] | 0% | 0% | do not show a significant effect | 1.7% | 8.1% | – |
| 157 to 160 °C | COc1ccc(C2=C(c3ccc(F)cc3)C(=O)n3c2cc2cc(OC)ccc23)cc1 [Example F4, 2-(4-florophenyl)-6-methoxy-1-(4-methoxyphenyl)-3a-aza-cyclopenta[a]indene-3-one] | 6.6% | 21.8% | do not show a significant effect | 0% | 0% | – |
